{"source": "patent US5519034A", "about": "“Tetraisoquinoline compounds which have useful pharmaceutical utility” (The Boots Company PLC, priority 1991, dated 1996)", "key": {"[1]": {"biological_target": "T1, D1 dopamine receptors (Rattus norvegicus, UniProt P18901)", "T1 construct": "Striatal samples from the brains of male Charles River CD rats; from tissue; host or cells: striatum of male Charles River CD rats (washed membrane pellet)", "T1 sequence (P18901 whole entry)": "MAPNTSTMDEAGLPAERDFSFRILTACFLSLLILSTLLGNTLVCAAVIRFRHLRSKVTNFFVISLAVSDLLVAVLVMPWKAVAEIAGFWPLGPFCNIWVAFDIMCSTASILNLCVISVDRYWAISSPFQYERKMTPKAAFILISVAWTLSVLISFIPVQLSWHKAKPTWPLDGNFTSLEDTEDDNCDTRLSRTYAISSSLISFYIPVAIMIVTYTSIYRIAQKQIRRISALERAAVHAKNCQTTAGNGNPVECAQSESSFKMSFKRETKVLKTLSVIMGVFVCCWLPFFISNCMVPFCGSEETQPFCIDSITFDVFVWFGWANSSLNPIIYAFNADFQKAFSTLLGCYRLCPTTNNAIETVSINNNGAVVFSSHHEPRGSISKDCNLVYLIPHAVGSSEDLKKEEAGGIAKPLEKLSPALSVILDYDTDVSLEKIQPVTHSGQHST", "assay": "D1 dopamine receptor binding: inhibition of tritiated SCH 23390 binding, rat striatal samples", "design": "species or system rat (male Charles River CD rats)", "settings": "rat striatum, tritiated SCH 23390, pH 7.4, 37° C., 30 minutes", "procedure,_shortened": "(§1)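 Rat striatal membranes in Tris-HCl with NaCl, KCl, CaCl2, MgCl2. Filtration, scintillation counting; Ki from displacement IC50 via ligand KD, some D2 Ki estimated from single concentrations.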"}, "[2]": {"biological_target": "T2, D2 dopamine receptors (Rattus norvegicus, UniProt P61169)", "T2 construct": "Striatal samples from the brains of male Charles River CD rats; from tissue; host or cells: striatum of male Charles River CD rats (washed membrane pellet)", "T2 sequence (P61169 whole entry)": "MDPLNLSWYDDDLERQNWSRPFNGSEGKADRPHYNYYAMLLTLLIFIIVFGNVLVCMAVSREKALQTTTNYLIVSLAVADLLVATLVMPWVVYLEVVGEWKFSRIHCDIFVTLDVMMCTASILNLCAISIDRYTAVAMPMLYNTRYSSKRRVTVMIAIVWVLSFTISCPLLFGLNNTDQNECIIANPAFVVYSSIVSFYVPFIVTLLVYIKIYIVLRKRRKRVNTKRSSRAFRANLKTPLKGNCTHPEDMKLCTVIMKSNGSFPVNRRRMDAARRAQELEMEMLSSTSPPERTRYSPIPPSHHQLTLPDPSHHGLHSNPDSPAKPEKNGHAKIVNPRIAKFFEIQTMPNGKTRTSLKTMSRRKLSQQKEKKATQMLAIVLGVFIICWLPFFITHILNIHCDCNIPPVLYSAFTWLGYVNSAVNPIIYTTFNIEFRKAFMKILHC", "assay": "D2 dopamine receptor binding: inhibition of tritiated (S)-sulpiride binding, rat striatal samples", "design": "species or system rat (male Charles River CD rats)", "settings": "for Ki: rat striatum, tritiated (S)-sulpiride; for Ki for D2 / Ki for D1: ratio to two significant figures", "procedure,_shortened": "as §1"}, "[3]": {"settings": "pH 7.7, 4° C., 40 minutes, > = from highest concentration which displaced ≤50% of the ligand, read-out: Ki for D2 binding"}}, "note": "Read-outs that look alike come from different tables or passages of the source.", "data": [{"smiles": "CN1CCc2cc(O)c(Cl)cc2C1C1(c2ccccc2)CCC1", "note": "(centres unmarked) [Example 31, 7-chloro-6-hydroxy-2-methyl-1-(1-phenylcyclobutyl)-1,2,3,4-tetrahydroisoquinoline]", "values": [{"measurement": "Ki", "setting": "[1]", "value": 540, "unit": "nM"}, {"measurement": "Ki", "setting": "[2]; estimated from single concentration data by Langmuir adsorption isotherm equation, read-out: Ki for D2 binding (marked E)", "value": 11000, "unit": "nM"}]}, {"smiles": "CN1CCc2cc(O)c(O)cc2C1C1(c2ccccc2)CC(C)(C)C1", "note": "(centres unmarked) [Example 21, 6,7-dihydroxy-2-methyl-1-(3,3-dimethyl-1-phenylcyclobutyl)-1,2,3,4-tetrahydroisoquinoline]", "values": [{"measurement": "Ki", "setting": "[1]", "value": 200, "unit": "nM"}, {"measurement": "Ki", "setting": "[2]; [3]", "value": "> 5000", "unit": "nM"}, {"measurement": "Ki for D2 / Ki for D1", "setting": "[2]", "value": "> 25"}]}, {"smiles": "CN1CCc2cc(O)c(O)cc2C1C1(c2ccc(-c3ccccc3)cc2)CCC1", "note": "(centres unmarked) [Example 78, 6,7-dihydroxy-2-methyl-1-[1-(4-biphenylyl)cyclobutyl]-1,2,3,4-tetrahydroisoquinoline]", "values": [{"measurement": "Ki", "setting": "[1]", "value": 94, "unit": "nM"}, {"measurement": "Ki", "setting": "[2]; [3]", "value": 550, "unit": "nM"}, {"measurement": "Ki for D2 / Ki for D1", "setting": "[2]", "value": 5.9}]}]}
